In patent US20250339549A1, “METHODS FOR THE DETECTION AND TREATMENT OF NON-SMALL-CELL LUNG CANCER” (Board of Regents, The University of Texas System, priority 2022, published 2025):

Columns and labels:
ALPP [1] = test: ALPP expression in cancer cell lines after drug treatment (immunoblot, immunofluorescence, flow cytometry, qPCR, surface proteomics); type: cell-based, human; conditions: for ALPP induction by other EGFR inhibitors (immunoblots): EGFR-mutant H1650 and HCC827; for ALPP expression after PI3K/AKT or MEK/ERK inhibition: HCC827 and H1650 (FIG. 8D: HCC827 and PC9); for ALPP expression after drug washout and re-treatment: 48 hours treatment, 48 hours without inhibitor; for ALPP and percentage of ALPP+ cells over time: one to four days, 30 nM; for fold increase in ALPP expression: EGFR TKI treatment (FIG. 7D, FIG. 15B: 30 nM, 48 hours)
Description: ALPP and ALPPL2 expression analysis in whole cell extracts and in the surfaceome compartment was done by mass spectrometry as previously described^19-23. Each dataset was normalized to the total number of spectral counts for each compartment^24.
Images were acquired in z-series on a spinning-disk confocal system.
Probe for ALPP was purchased from Thermo Fisher Scientific (Hs03046558_s1).

[2] = test system: AKT (Ser473) and ERK (T202/Y204) phosphorylation; test: Immunoblots for AKT and ERK phosphorylation in LUAD cells; type: cell-based, human; conditions: H2291 and H1650; EGF 10 or 20 ng/mL, gefitinib 0.5 or 1 μM
HCC827 and PC9 cells [3] = test: Flow cytometry-based cell cycle analysis; parameters: species or system human; conditions: 30 nM
HCC827 and PC9 cells [4] = conditions: 100 nM
ALPP [5] = conditions: cited from earlier work
FoxO3a = FoxO3a phosphorylation, localisation and transcription in LUAD cells
ALPP promoter = test: ChIP-qPCR for FoxO3a binding to the promoter region of ALPP gene; type: cell-based, human; conditions: H1650 and HCC827; 1 μM, 6 hours
Description: Subsequently, the DNA-protein complexes were enriched with Protein A/G magnetic Beads and DNA was recovered by the DNA Clean-up column.

ALPP [6] = test: IHC for ALPP in tumor and normal tissues of gefitinib-treated H1650 tumor-bearing mice; type: in vivo, BALB/c nude mice; conditions: 50 mg/kg daily for 10 days
Protocol: IHC staining was performed as previously described 25.

ALPP [7] = conditions: PC9 xenograft tumors; GSE161584; cited from earlier work
[8] = EGFR mut H1650, 24- and 48-hour treatment

Which “ALPP induction by other EGFR inhibitors (immunoblots)” value (ALPP [1]) does the source give for `CS(=O)(=O)CCNCc1ccc(-c2ccc3ncnc(Nc4ccc(OCc5cccc(F)c5)c(Cl)c4)c3c2)o1` [lapatinib] here?
The value was “yielded similar results”.

Which “ALPP expression (immunoblots)” value (ALPP [1]; [8]) does the source give for “EGF: epidermal growth factor, the endogenous ligand of EGFR” here?
The value was “reduced ALPP expression”.

What about the “ALPP expression in EGF-containing growth medium” value (ALPP [1]; H1650 and H2291, EGF 10 or 20 ng/mL, 24 and 48 hours) of the same molecule?
Its value is “drastically reduced”.

What about the “AKT and ERK phosphorylation” value [2] of the same molecule?
The value was “induced AKT phosphorylation at serine 473 (Ser473), and ERK phosphorylation at threonine 202 (T202) and tyrosine 204 (Y204) residues”.

Which “ALPP expression after PI3K/AKT or MEK/ERK inhibition” value (ALPP [1]; 100 nM, 48 hours) does the source give for `Cc1cc(C(=O)NOCCO)c(Nc2ccc(I)cc2F)n(C)c1=O` [AZD8330] here?
Its value is “drastic induction of ALPP expression”.

For `C=CC(=O)Nc1cc(Nc2nccc(-c3cn(C)c4ccccc34)n2)c(OC)cc1N(C)CCN(C)C` [osimertinib], which “ALPP induction by other EGFR inhibitors (immunoblots)” value (ALPP [1]) is on record?
Its value is “yielded similar results”.

What about the “ALPP expression (immunoblots)” value (ALPP [1]; HCC827 and PC9, 30 nM (FIG. 8K)) of the same molecule?
Its value is “increased ALPP expression”.

What about the “ALPP expression after drug washout and re-treatment” value (ALPP [1]; HCC827 and PC9) of the same molecule?
The value was “markedly reduced in the absence of EGFR inhibitors and was restored with the addition of inhibitors”.

And the “ALPP and percentage of ALPP+ cells over time” value (ALPP [1]; HCC827 and PC9)?
Its value is “gradual and sustained increase of ALPP and percentage of ALPP^+ cells”.

What about the “fold increase in ALPP expression” value (ALPP [1]; HCC827 cells) of the same molecule?
The value was about 60 fold.

What about the “fold increase in ALPP expression” value (ALPP [1]; PC9 cells) of the same molecule?
Its value is about 110 fold.

And the “cell cycle arrest in G0/G1” value (HCC827 and PC9 cells [3])?
The value was “statistically significantly increased cell cycle arrest in G0/G1”.

And the “emergence of drug-resistant clones under continuous TKI treatment” value (HCC827 and PC9 cells [4])?
The value was “led to the emergence of drug-resistant clones”.

And the “Ingenuity Pathway Analysis of upstream regulators” value (ALPP [5]; 4 LUAD cell lines, RNAseq data GSE193258)?
The value was “concordant activation of FoxO3a, but not FoxO1”.

And the “ALPP gene expression, single cell transcriptomics” value (ALPP [5]; PC9, 0, 3, 7, 14 days, GSE150949)?
Its value is “progressive increase in ALPP gene expression”.

What about the “LUAD cells expressing ALPP” value (ALPP [5]; PC9, day 14, GSE150949) of the same molecule?
The value was about 50%.

What about the “phosphorylation of EGFR and FoxO3a” value (FoxO3a; HCC827 and PC9, 30 nM) of the same molecule?
Its value is “suppressed the phosphorylation of EGFR and FoxO3a”.

Which “ALPP expression after PI3K/AKT or MEK/ERK inhibition” value (ALPP [1]; 100 nM, 48 hours) does the source give for `O=C(Nc1ccc2[nH]nc(-c3ccncc3)c2c1)[C@@H]1CCN(CC(=O)N2CCN(c3ccc(-c4ncccn4)cc3)CC2)C1` [SCH772984] here?
Its value is “drastic induction of ALPP expression”.

Which “ALPP protein expression after FoxO inhibition” value (ALPP [1]; LUAD cells (HCC827 and PC9), 48 hours) does the source give for `CCn1cc(C(=O)O)c(=O)c2c(N)c(F)c(NC3CCCCC3)cc21` [AS1842856] here?
Its value is “diminished ALPP protein expression”.

And the “effect on gefitinib-mediated ALPP upregulation” value (ALPP [1]; LUAD cells (HCC827 and PC9), with gefitinib, 48 hours)?
Its value is “blunted gefitinib-mediated ALPP upregulation”.

With `COc1cc2ncnc(Nc3ccc(F)c(Cl)c3)c2cc1OCCCN1CCOCC1` [gefitinib] as the molecule, how does the “ALPP expression (immunoblots)” value (ALPP [1]; [8]) read?
The value was “ALPP upregulation”.

And the “surface ALPP expression (mass spectrometry, immunofluorescence)” value (ALPP [1]; EGFR mutant H1650 and PC9, 24- and 48-hour treatment)?
Its value is “pronounced upregulation of surface ALPP expression”.

What about the “ALPP expression (immunoblots)” value (ALPP [1]; EGFR wild-type, KRAS mutant H2291 and H1838) of the same molecule?
The value was “increased ALPP expression, although to a lesser extent”.

What about the “surface ALPP by flow cytometry in gefitinib-resistant cells” value (ALPP [1]; GR HCC827 and PC9, 100 nM) of the same molecule?
The value was “majority of gefitinib-resistant cells expressed high level of ALPP”.

And the “ALPP expression in gefitinib-resistant (GR) cells” value (ALPP [1]; GR HCC827 and PC9, 100 nM, 48 hours)?
The value was “further enhanced ALPP upregulation”.

What about the “ALPP upregulation in ALPP non-expressing cell lines” value (ALPP [1]; H1395, H1944, HCC2279, 1 μM, 48 hours) of the same molecule?
Its value is “did not upregulate ALPP”.

What about the “ALPP mRNA levels” value (ALPP [1]; H1650 and HCC827) of the same molecule?
Its value is “concomitant increases in ALPP mRNA levels”.

And the “ALPP levels in ALPP-positive LUAD cell lines” value (ALPP [1]; H2291, H1650, H1838, H1651, 1 μM, 48 hours)?
The value was “exhibited elevated ALPP levels”.

What about the “ALPP expression after drug washout and re-treatment” value (ALPP [1]; HCC827 and PC9) of the same molecule?
The value was “markedly reduced in the absence of EGFR inhibitors and was restored with the addition of inhibitors”.

What about the “ALPP and percentage of ALPP+ cells over time” value (ALPP [1]; HCC827 and PC9) of the same molecule?
The value was “gradual and sustained increase of ALPP and percentage of ALPP^+ cells”.

What about the “ALPP expression (immunoblots)” value (ALPP [1]; TNBC cell lines BT20 and HCC1937, 1 μM) of the same molecule?
The value was “increased ALPP expression”.

What about the “AKT and ERK phosphorylation” value [2] of the same molecule?
The value was “repressed phosphorylation of AKT and ERK”.

What about the “FoxO3a binding to ALPP promoter (ChIP-qPCR)” value (ALPP promoter) of the same molecule?
Its value is “induced FoxO3a binding to ALPP promoter sequences”.

And the “tumoral ALPP surface expression (IHC)” value (ALPP [6])?
The value was “pronounced increases in tumoral ALPP surface expression”.

And the “ALPP protein staining in other tissues (IHC)” value (ALPP [6]; normal tissues)?
Its value is “negative or showed no appreciable difference compared to the vehicle control”.

What about the FoxO3a cytosol/nucleus distribution (FoxO3a; H1650 and HCC827) of the same molecule?
Its FoxO3a cytosol/nucleus distribution is “reduced cytosolic FoxO3a and promoted its nuclear translocation”.

What about the “phosphorylation of FoxO3a (Ser294, Ser425)” value (FoxO3a; H1650 and HCC827, 30 nM, 6 hours) of the same molecule?
The value was “repressed phosphorylation of FoxO3a at Ser294 and Ser425 residues”.

And the “transcription of FOXO3A” value (FoxO3a; LUAD cells)?
The value was “not affected”.

For `C#Cc1cccc(Nc2ncnc3cc(OCCOC)c(OCCOC)cc23)c1` [erlotinib], which “ALPP mRNA expression in xenograft tumors” value (ALPP [7]) is on record?
The value was “increased ALPP mRNA expression in erlotinib-responding tumors compared with treatment naïve tumors”.

For `Nc1cc(C(F)(F)F)c(-c2cc(N3CCOCC3)nc(N3CCOCC3)n2)cn1` [NVP-BKM120], which “ALPP expression after PI3K/AKT or MEK/ERK inhibition” value (ALPP [1]; 100 nM, 48 hours) is on record?
The value was “drastic induction of ALPP expression”.
